Experimental data published in paper PMC8951032, “Study of Biological Activities and ADMET-Related Properties of Novel Chlorinated N-arylcinnamamides” (International Journal of Molecular Sciences, 2022).
Values after ≈ are worked out from the molar mass of the structure shown. Like-named read-outs stand apart in the source and are kept apart here.

Legend:
[1] = Lipophilicity determination by RP-HPLC (log k, log D); assay type: physicochemical
How it was run: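 Isocratic RP-HPLC on C18 column, 40 °C, 1.0 mL/min, UV 210 nm, dead time from KI. log k from MeOH/water 72:28; log D at pH 7.4 and 6.5 from MeOH/acetate buffered saline 72:28. k and D = (tR − tD)/tD; triplicate runs.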

[2] = test system: methicillin-resistant S. aureus (MRSA) 63718; test: In vitro antistaphylococcal activity, microtitration broth MIC; assay type: cell-based; settings: Staphylococcus aureus
[3] = test system: Enterococcus faecalis ATCC 29212; test: In vitro antienterococcal activity, microtitration broth MIC; assay type: cell-based
[4] = test system: vancomycin-resistant E. faecalis (VRE) 342B; test: as above; assay type: cell-based, Enterococcus faecalis; settings: 24 h
[5] = test system: vancomycin-resistant E. faecalis (VRE) 368; test: as above; assay type: cell-based, Enterococcus faecalis
[6] = test system: vancomycin-resistant E. faecalis (VRE) 725B; test: as above; assay type: cell-based, Enterococcus faecalis; settings: 24 h
[7] = test system: human monocytic leukemia cell line THP-1; test: In vitro cell viability, CCK-8; assay type: cell-based; settings: Homo sapiens, THP-1
Method: (§1) The effect of the compounds on viability of eukaryotic cells was evaluated on human leukemia cell line THP-1, human synovial cell line SW982, and isolated primary porcine monocytes-delivered macrophages (MDM). The general cytotoxic effect was studied on THP-1 cells in the serum-free medium (only THP-1 as the only cells used in this study are able to survive in serum-free medium). Most of the compounds had no cytotoxic effect on THP-1 cells. […] This could be caused by the direct interaction of such compounds with serum proteins or by the effect of mitogens, cytokines, and hormones present in the serum. Obviously, the full medium is closer to physiological conditions in living organisms, so it can be assumed that these compounds could be non-toxic there.
(§2) Human monocytic leukemia cell line THP-1 and human synovial cell line SW982 were purchased from the European Collection of Cell Cultures (ECACC, Salisbury, UK) and were used for determination of the influence of test compounds on cell viability, as described previously. These cell lines represent typical suspension and adherent cells, respectively. They were cultivated with test substances in the presence or absence of fetal bovine serum (FBS) in the cultivation medium, and the relative cell viability (the ratio between cells treated with compounds and cells treated only with DMSO) was determined by CCK-8 kit (Sigma) after 24 h.

[8] = test system: human synovial cell line SW982; test: In vitro cell viability, CCK-8; assay type: cell-based; settings: 10% fetal bovine serum
Method: as §1, §2

[9] = test system: porcine monocyte-derived macrophages (MDM); test: In vitro cell viability, CCK-8; assay type: cell-based; settings: Sus scrofa, Macrophage; 10% fetal bovine serum, 24 h; read-out: IC50 MDM 10% FSB
Method: as §1
Porcine monocyte-derived macrophages (MDMs) were prepared, as described previously. Briefly, blood was collected from three-month-old pigs and peripheral blood mononuclear cells (PBMC) were isolated by gradient centrifugation (830× g, 40 min) using Histopaque-1077 (Sigma). CD14+ cells were isolated by positive magnetic bead selection with LS separation columns (Miltenyi Biotec, Bergisch Gladbach, Germany). Isolated monocytes were cultured in 96-well plates at a concentration of 1 × 10^5 cells per well in 0.2 mL of DMEM supplemented with 10% FBS and 1% antibiotics (Antibiotic Antimycotic Solution 100 × 10,000 units penicillin, 10 mg streptomycin, and 25 μg amphotericin B per mL; Sigma) and incubated for five days at 37 °C in 5% CO2 to differentiate into macrophages. Then, MDMs were cultured for 24 h with tested substances and the relative cell viability was determined by CCK-8 kit (Sigma) following manufacturer instructions.

[10] = test system: S. aureus, MRSA, E. faecalis, VRE, M. smegmatis, M. marinum; test: In vitro antimicrobial screening, all tested strains; assay type: cell-based; settings: antibacterial/antimycobacterial screening

## O=C(/C=C/c1ccc(Cl)c(Cl)c1)Nc1cc(C(F)(F)F)cc(C(F)(F)F)c1 [2q, (2E)-N-[3,5-bis(Trifluoromethyl)phenyl]-3-(3,4-dichlorophenyl)prop-2-enamide]
[1]; MeOH 72%/H2O 28%
  log k: 1.4731
[1]; MeOH 72%/acetate buffered saline pH 6.5
  log D6.5: 1.4967
[1]; MeOH 72%/acetate buffered saline pH 7.4
  log D7.4: 1.4717
[2]; 24 h, MRSA 63718, read-out: log(1/MIC [M]) MRSA1 (converted)
  MIC: 1.35e-07 M (≈ 0.0578 µg/mL)
[2]; MRSA 63718, 24 h, read-out: MIC MRSA1
  MIC: 1.36e-07 M (≈ 0.0582 µg/mL)
[3]; ATCC29212, 24 h, E. faecalis reference strain, read-out: log(1/MIC [M]) EF (converted)
  MIC: 1.07e-05 M (≈ 4.59 µg/mL)
[3]; ATCC29212, E. faecalis reference strain, 24 h, read-out: MIC EF
  MIC: 4.67e-06 M (≈ 2 µg/mL)
[4]; read-out: MIC VRE1
  MIC: 9.34e-06 M (≈ 4 µg/mL)
[4]; read-out: log(1/MIC [M]) VRE1 (converted)
  MIC: 9.33e-06 M (≈ 4 µg/mL)
[5]; 24 h, VRE 368, read-out: log(1/MIC [M]) VRE2 (converted)
  MIC: 1.86e-05 M (≈ 7.97 µg/mL)
[5]; VRE 368, 24 h, read-out: MIC VRE2
  MIC: 1.87e-05 M (≈ 8 µg/mL)
[6]; read-out: MIC VRE3
  MIC: 4.67e-06 M (≈ 2 µg/mL)
[6]; read-out: log(1/MIC [M]) VRE3 (converted)
  MIC: 4.68e-06 M (≈ 2 µg/mL)
[7]; 10% fetal bovine serum, 24 h, read-out: IC50 THP-1 10% FSB
  IC50: > 1e-05 M
[7]; 10% fetal bovine serum, read-out: log(1/IC50 [M]) THP-1 10% FSB (converted)
  IC50: > 1e-05 M
[7]; serum-free medium, 24 h, read-out: IC50 THP-1 SFM
  IC50: 5e-07 ± 1e-06 M
[7]; serum-free medium, read-out: log(1/IC50 [M]) THP-1 SFM (converted)
  IC50: 1e-06 M
[8]; 24 h, read-out: IC50 SW982 10% FSB
  IC50: > 1e-05 M
[8]; read-out: log(1/IC50 [M]) SW982 10% FSB (converted)
  IC50: > 1e-05 M
[9]
  IC50: 5 to 10 µM
[10]
  antimicrobial activity (in words): active
